What was measured:
[1] = molecular target: Cytosolic beta-glucosidase (Bos taurus); test: Inhibition of bovine liver beta-glucosidase at pH 7.3 incubated for 10 to 30 mins using beta-D-glycopyranoside substrate by spectrophotometry
[2] = molecular target: Cytosolic beta-glucosidase (Bos taurus); test: Inhibition of bovine liver beta-glucosidase at pH 5.5 incubated for 10 to 30 mins using beta-D-glycopyranoside substrate by spectrophotometry

Row | Ki [1] [µM] | Ki [2] [µM] | SMILES
1 | 26.4 | 45 | COC(=O)CCCCCCCCCCCCCCCSC1=N[C@H]2O[C@H](CO)[C@@H](O)[C@H](O)[C@H]2O1
2 | 11.1 | 66 | OC[C@H]1O[C@@H]2N=C(SCCCCCCCCCCCCCCCCF)O[C@@H]2[C@@H](O)[C@@H]1O

From BindingDB's records for doi:10.1016/j.ejmech.2014.11.002 (Universitat Rovira I Virgili, 2015)
